Data on 17 molecules can be found in ChEMBL document CHEMBL3600375, “Anti-Plasmodium falciparum activity of quinoline-sulfonamide hybrids” (Bioorg Med Chem, 2015).

One may read the IC50 as the concentration needed to halve the response being measured. As a reminder, the inhibition in vivo is how much of the control response was suppressed.

Series [1] can be described thus: Cytotoxicity against African green monkey BGM cells incubated for 18 hrs by neutral red assay. It counts as cell-based. The conditions noted are these: chlorocebus aethiops, read-out: MLC50.
Series [2] in a line: Selectivity index, ratio of MLC50 for African green monkey BGM cells to IC50 for chloroquine and sulfadoxine-resistant and mefloquine-sensitive Plasmodium falciparum W2. It counts as toxicity, cell-based. The following applies: read-out: Selectivity Index.
The next series deals with Plasmodium falciparum. Briefly: Antiplasmodial activity against chloroquine and sulfadoxine-resistant and mefloquine-sensitive Plasmodium falciparum W2 infected in human erythrocytes by anti-HRP2 assay. It counts as functional, organism-based.
For series [3], the system named is Plasmodium berghei. As to the kind of experiment: Antiplasmodial activity against Plasmodium berghei NK65 infected in mouse assessed as inhibition of inhibition of parasitemia at 10 mg/kg, po treated for 3 consecutive days 24 hrs after parasite infection and measured on day 5 after inoculation by Giemsa staining based microscopy. It counts as functional.
Series [4] deals with Plasmodium berghei. As to the kind of experiment: Antiplasmodial activity against Plasmodium berghei NK65 infected in mouse assessed as inhibition of inhibition of parasitemia at 10 mg/kg, po treated for 3 consecutive days 24 hrs after parasite infection and measured on day 7 after inoculation by Giemsa staining based microscopy. It counts as functional.
Series [5] relates to Plasmodium berghei. As to the kind of experiment: Antiplasmodial activity against Plasmodium berghei NK65 infected in mouse assessed as inhibition of inhibition of parasitemia at 20 mg/kg, po treated for 3 consecutive days 24 hrs after parasite infection and measured on day 7 after inoculation by Giemsa staining based microscopy. It counts as functional.
Series [6] has as its system Plasmodium berghei. Briefly: Antiplasmodial activity against Plasmodium berghei NK65 infected in mouse assessed as inhibition of inhibition of parasitemia at 20 mg/kg, po treated for 3 consecutive days 24 hrs after parasite infection and measured on day 5 after inoculation by Giemsa staining based microscopy. It counts as functional.
In series [7] the test system is Plasmodium berghei. As to the kind of experiment: Antiplasmodial activity against Plasmodium berghei NK65 infected in mouse assessed as inhibition of inhibition of parasitemia at 1 mg/kg, po treated for 3 consecutive days 24 hrs after parasite infection and measured on day 7 after inoculation by Giemsa staining based microscopy. It counts as functional.
Series [8] relates to Plasmodium berghei. As to the kind of experiment: Antiplasmodial activity against Plasmodium berghei NK65 infected in mouse assessed as inhibition of inhibition of parasitemia at 1 mg/kg, po treated for 3 consecutive days 24 hrs after parasite infection and measured on day 5 after inoculation by Giemsa staining based microscopy. It counts as functional.

In the case of `Cc1ccc(S(=O)(=O)NCCNc2ccnc3cc(Cl)ccc23)cc1`, the CC50 at 18 h in [1] came to 125 µM. Further, the selectivity ratio in series [2] amounted to 261. The IC50 in the series on Plasmodium falciparum stood at 0.48 µM.

As for `O=S(=O)(NCCCCNc1ccnc2cc(Cl)ccc12)c1ccccc1`, the CC50 at 18 h in [1] was more than 257 µM. For the same molecule, the selectivity ratio in series [2] is more than 642. This molecule also gave an IC50 in the series with Plasmodium falciparum of 0.4 µM.

In the case of `Cc1ccc(S(=O)(=O)NCCCNc2ccnc3cc(Cl)ccc23)cc1`, the CC50 at 18 h in series [1] was determined as 95 µM. In [2], the selectivity ratio turned out to be 339. The IC50 in the series on Plasmodium falciparum is 0.28 µM.

Turning to `O=S(=O)(NCCNc1ccnc2cc(Cl)ccc12)c1ccc(Cl)cc1`, the CC50 at 18 h in series [1] was 116 µM. Further, in series [2], the selectivity ratio was determined as 171. Moreover, inhibition in the series on Plasmodium falciparum was half-maximal at 0.68 µM (IC50).

As to `O=S(=O)(NCCCNc1ccnc2cc(Cl)ccc12)c1ccc(Cl)cc1`, in series [1], the CC50 at 18 h worked out at 103 µM. For the same molecule, the selectivity ratio in series [2] is 380. The IC50 in the series on Plasmodium falciparum came to 0.27 µM.

`O=S(=O)(NCCCCNc1ccnc2cc(Cl)ccc12)c1ccc(F)cc1`: the CC50 at 18 h in series [1] was 155 µM. The inhibition in vivo at 10 mg/kg in the series on Plasmodium berghei [3] is 30%; with Plasmodium berghei [4], 7%. In series [2], the selectivity ratio turned out to be 1030. Inhibition in the series on Plasmodium falciparum was half-maximal at 0.15 µM (IC50).

In the case of `O=S(=O)(NCCCNc1ccnc2cc(Cl)ccc12)c1ccc(Br)cc1`, the CC50 at 18 h in series [1] is 22 µM. Further, in series [2], the selectivity ratio was found to be 75.8. The IC50 with Plasmodium falciparum turned out to be 0.29 µM.

In the case of `CCN(CC)CCCC(C)Nc1ccnc2cc(Cl)ccc12` (centres undefined) [CHLOROQUINE], the inhibition in vivo at 20 mg/kg in the series with Plasmodium berghei [5] is 76%; in the series on Plasmodium berghei [6], 93%.

For `O=S(=O)(NCCNc1ccnc2cc(Cl)ccc12)c1ccccc1`, in series [1], the CC50 at 18 h turned out to be 122 µM. Also, in series [2], the selectivity ratio amounted to 74.7. Besides, the half-inhibitory concentration (IC50) in the series on Plasmodium falciparum came out at 1.63 µM.

For the molecule `O=S(=O)(NCCNc1ccnc2cc(Cl)ccc12)c1ccc(F)cc1`, the CC50 at 18 h in series [1] was 203 µM. For the same molecule, the selectivity ratio in series [2] was determined as 180. The molecule also gave an IC50 in the series on Plasmodium falciparum of 1.13 µM.

Consider `O=S(=O)(NCCCCNc1ccnc2cc(Cl)ccc12)c1ccc(Br)cc1`, for which the CC50 at 18 h in series [1] is 14.9 µM. In series [2], the selectivity ratio was 99.3. It took 0.15 µM to reach half-maximal inhibition in the series with Plasmodium falciparum (IC50).

For `COc1ncnc(NS(=O)(=O)c2ccc(N)cc2)c1OC` [SULFADOXINE], the inhibition in vivo at 1 mg/kg in the series on Plasmodium berghei [7] came out at 96%; in the series on Plasmodium berghei [8], 100%. For the same molecule, the CC50 at 18 h in [1] is more than 310 µM. In addition, the IC50 in the series with Plasmodium falciparum was more than 15.5 µM.

For `Cc1ccc(S(=O)(=O)NCCCCNc2ccnc3cc(Cl)ccc23)cc1`, in series [1], the CC50 at 18 h came out at 107 µM. The inhibition in vivo at 10 mg/kg with Plasmodium berghei [3] stood at 27%; in the series with Plasmodium berghei [4], 0%. Further, the selectivity ratio in series [2] amounted to 2490. In the series with Plasmodium falciparum, this molecule showed an IC50 of 0.05 µM.

With `O=S(=O)(NCCCNc1ccnc2cc(Cl)ccc12)c1ccccc1`, the CC50 at 18 h in series [1] is 275 µM. Moreover, the selectivity ratio in series [2] is 784. This molecule returned an IC50 in the series with Plasmodium falciparum of 0.35 µM.

Regarding `O=S(=O)(NCCCNc1ccnc2cc(Cl)ccc12)c1ccc(F)cc1`, the CC50 at 18 h in series [1] worked out at 339 µM. Besides, the inhibition in vivo at 10 mg/kg with Plasmodium berghei [3] is 47%; in the series with Plasmodium berghei [4], 27%. For the same molecule, the selectivity ratio in [2] is 3390. Further, the IC50 in the series with Plasmodium falciparum turned out to be 0.1 µM.

As for `O=S(=O)(NCCNc1ccnc2cc(Cl)ccc12)c1ccc(Br)cc1`, in series [1], the CC50 at 18 h came out at 88.8 µM. In addition, in [2], the selectivity ratio is 73.3. Moreover, the IC50 with Plasmodium falciparum was 1.21 µM.

In the case of `O=S(=O)(NCCCCNc1ccnc2cc(Cl)ccc12)c1ccc(Cl)cc1`, in series [1], the CC50 at 18 h was 99.2 µM. The results for the inhibition in vivo at 10 mg/kg in the series on Plasmodium berghei [3] and in the series with Plasmodium berghei [4] were 49% and 33%, respectively. In series [2], the selectivity ratio came to 1100. In the series on Plasmodium falciparum, this molecule showed an IC50 of 0.09 µM.
